Where two headings read alike, the source gives them in different places.
Assays:
[1] = tested on: H82 cells; assay: H82 SCLC tumor growth in nude mice, subcutaneous minipump; format: in vivo, mouse
Method: Mice (NU/NU, Charles River Laboratories) were injected with SCLC tumor cells (NCI-H82 cells, American Type Culture Collection (ATCC); Manassas, Va.), treated with drug and tumor growth monitored. The H82 cells express M3 muscarininc receptor (see Song et al., Cancer Res. 63:214-21, 2003). Nude mice, 5-7 weeks old were housed in a pathogen-free room in microisolators with autoclaved bedding, and fed autoclaved rodent chow and water.
H82 cells were first grown in RPMI-1640+ITS (insulin (5 μg/ml), transferrin (5 μg/ml), sodium selenite (5 ng/ml)). Cells were collected, centrifuged and resuspended in fresh RPMI-1640+ITS at a concentration of 5×10^6 cell/0.25 ml. Cells were then mixed with an equal volume of matrigel (BD Biosciences) to give a final concentration of 5×10^6 cell/0.5 ml and 0.5 ml of this cell suspension was then injected subcutaneously into the right flank of each mouse.
(§1) Tumors were allowed to grow for one week, then drug administration was initiated and continued for the next 4 weeks. Drugs were administered by subcutaneously-implanted osmotic minipumps (Alzet model# 2004). Atropine and darifenacin were dissolved in 50% DMSO/50% phosphate-buffered saline. Atropine was delivered at a dose of 10 mg/kg per day; darifenacin (Novartis Pharma AG, Basel, Switzerland) was delivered at doses of 0.3, 1.0 and 3.0 mg/kg per day. Control animals received minipumps filled with 50% DMSO/50% phosphate-buffered saline.
(§2) Tumor volume was determined weekly by measuring with calipers (volume=height×width×depth). Mice were euthanized after 4 weeks of drug administration. 10 animals were used per group. At sacrifice tumors were removed and weighed. Part of the tumor was fixed for histologic examination of tumor morphology and part was frozen for RNA and protein analyses.

[2] = tested on: SCLC cell line H82; assay: H82 cell proliferation with subtype-selective mAChR antagonists; format: cell-based, human
Method: (§3) For in vitro cell proliferation assays, cells were suspended at a concentration of 50,000 cells/ml and pipetted up and down to break up cell clumps. 100 μl cell suspension was added to each well of a 96-well plate. 100 μl darifenacin at concentrations of 2×10^−5, 2×10^−6, 2×10^−7, 2×10^−8, 2×10^−9 M and vehicle control were then added to wells. Every three days, half the volume of the media was changed and at 0, 3, 6, 9 and 12 days, cell number was determined with the Cell-Titer Blue reagent (Promega, Madison Wis.) which measures the production of the fluorescent product of resorufin from resazurin by metabolically active cells.

[3] = tested on: lung, pancreas and esophagus; details: nicotine for 3 weeks vs control mice
Method: At the end of 3 weeks, bromodeoxy uridine (BrdU) will be injected ip, 50 mg/kg, then 24 hours later mice will be sacrificed and selected tissues removed to measure cell proliferation. Tissues removed will include lung, pancreas and esophagus, tumors of which are associated with smoking. Tissues will be sectioned and BrdU incorporation into cells determined so as to determine the number of replicating cells per section.

[4] = tested on: H82 SCLC cells; details: H82 SCLC cells incubated with nicotine; FIG. 6
Method: H82 SCLC cells were incubated with nicotine for the times shown and secretion of ACh into the medium was measured.

[5] = tested on: H82 cells; assay: H82 tumors in nude mice receiving nicotine (planned); format: in vivo, mouse; details: nicotine 2.0 mg/kg/day by minipump
Method: Nude mice are administered H82 cells as described in Example 3. […] Nicotine (nicotine bitartrate, Sigma) is dissolved in water at a concentration to deliver 2.0 mg/kg/day; and will be administered by a second minipump. Tumor volume will be determined weekly as described in the Examples above, and mice euthanized after 4 weeks of drug administration. At sacrifice tumors are removed and weighed. Part of the tumor can be fixed for histologic examination of tumor morphology and part frozen for RNA and protein analyses.

[6] = tested on: Akt phosphorylation; assay: Akt phosphorylation in tumors removed from treated mice; format: in vivo, mouse; details: tumors removed from darifenacin-treated mice
Method: as §2
(§4) ACh content of control tumor samples was 420±110 pmol/g which, corresponds to 4×10^−7 M, assuming uniform distribution in the tumor. These levels of ACh are high enough to increase MAPK phosphorylation.

[7] = plasma darifenacin concentration in nude mice; format: in vivo, mouse; details: s.c. minipump; for concentration at 4 weeks: mouse, plasma, sc
Method: FIG. 4 is a bar graph showing the relation of nude mouse darifenacin dose to concentration of darifenacin achieved in mouse blood. Dashed lines show concentration of darifenacin obtained in humans treated with 30 mg extended release darifenacin per day.
as §1
Thus significant reduction in SCLC growth can be achieved at clinically relevant doses of M3 mAChR antagonists.

[8] = tested on: SCLC cell lines; assay: in vitro cell proliferation assay (Cell-Titer Blue); format: cell-based, human
Method: SCLC cell lines (HA-E, SV-E, LV-E, BK-T, HG-E, AD-A, LD-T, H69 (HTB-119), H82 (HTB-175), H146 (HTB 173), H187 (CRL-5804), H524 (CRL-5831), H526 (CRL-5811), H740 (CRL-5840), H841 (CRL-5845), H1048 (CRL-5853), H1105 (CRL-5856), H1417 (CRL-5869), H1694 (CRL-5888). H1836 (CRL-5898), H1876 (CRL-5902), H2029 (CRL-5913), H2195 (CRL-5931), and H2198 (CRL-5933)), were grown in RPMI 1640 medium (Mediatech, Herndon Va.) supplemented with 0-10% fetal bovine serum (Hyclone, Logan, Utah) and ITS (5 μg/ml insulin, 5 μg/ml transferrin, 5 ng/ml sodium selenite (BD Biosciences, San Jose, Calif.)) plus 100 units/ml penicillin, […] streptomycin, and […] amphotericin (Invitrogen, Carlsbad Calif.) at 37° C. in a humidified 5% CO2 atmosphere.
as §3

[9] = tested on: MAPK phosphorylation; assay: MAPK phosphorylation in tumors removed from treated mice; format: in vivo, mouse; details: tumors removed from darifenacin-treated mice
Method: as §2, §4

[10] = overall animal weight of treated nude mice; format: in vivo, mouse; details: darifenacin treatment
Method: as §1

[11] = up to 10^−5 mol/L, nine days of treatment

## O=C(O[C@H]1C[C@H]2CC[C@@H](C1)[N+]21CCCC1)C(O)(c1ccccc1)c1ccccc1 [trospium]
[1]; stated for nonselective antagonists, no dose or test described
  tumor growth: do not reduce or inhibit tumor growth

## CCN(CC)CC1CCCCN1CC(=O)N1c2ccccc2C(=O)Nc2cccnc21 (centres unmarked) [AFDX-1116]
[2]; [11]
  H82 cell proliferation: no detectable effect

## Cl.O[Si](CCCN1CCCCC1)(c1ccc(F)cc1)C1CCCCC1 (centres unmarked) [P-F-HHSiD, hexahydro-sila-difenidol hydrochloride, p-fluoro analog]
[2]; 10^−5 mol/L, after nine days
  H82 cell proliferation: significantly reduced cell proliferation

## CN1CCN(CC(=O)N2c3ccccc3C(=O)Nc3cccnc32)CC1 [pirenzepine]
[2]; [11]
  H82 cell proliferation: no detectable effect

## CN1CCCC1c1cccnc1 (centres unmarked) [nicotine]
[3]
  replicating cells in tissue (BrdU incorporation): more replicating cells
[4]
  acetylcholine secretion into the medium: stimulates acetylcholine secretion
[5]
  effect of nicotine on tumor growth: grow faster

## CN1[C@@H]2CC[C@H]1C[C@@H](OC(=O)C(CO)c1ccccc1)C2 (some centres unmarked) [atropine]
[1]; 10 mg/kg per day s.c. minipump, weeks 1-5, FIG. 5
  tumor growth (tumor weight): do not reduce or inhibit tumor growth

## NC(=O)C(c1ccccc1)(c1ccccc1)[C@@H]1CCN(CCc2ccc3c(c2)CCO3)C1 [darifenacin, (S)-2-{1-[2-(2,3-dihydrobenzofuran-5-yl)ethyl]-3-pyr-rolidinyl}-2,2-diphenyl-acetamide]
[6]
  Akt phosphorylation in the tumors: no significant effects
[7]; 3 mg/kg per day, read-out: average plasma darifenacin concentration at which tumor growth was reduced
  concentration at 4 weeks: 9.4 ± 0.3 ng/mL
[7]; FIG. 4, read-out: plasma darifenacin concentrations at which inhibition of tumor growth was achieved
  concentration at 4 weeks: 3 to 10 ng/mL
[7]
  average plasma darifenacin concentration: ~25 nM
  average plasma darifenacin concentration at which tumor growth was reduced: 9.4 ± 0.97 ng/mL
[1]; 0.3, 1.0 and 3.0 mg/kg per day s.c. minipump, weeks 1-5, FIG. 2
  tumor size (volume by calipers): dosewise-reduction
[1]; highest dose of darifenacin
  histology of tumor cells compared to controls: larger in size, with increased-cytoplasm and less nuclear molding
[1]; largest dose (3.0 mg/kg per day), FIG. 2
  inhibition of tumor size, statistics: statistically significant
[1]; tumors removed and weighed at end of 5 weeks, FIG. 3
  tumor weight: significant decrease
[8]; 10 μM darifenacin, H187, H1048, H1836, H1876, H520, FIGS. 1A-E
  cell growth in five SCLC cell lines: responsive
[8]; 20 SCLC cell lines tested
  SCLC cell lines with significantly reduced proliferation: 14 out of 20
[8]; cell lines LV-E, AD-A, L-D-T, H69, H1417, H2198
  proliferation of non-responding cell lines: not affected
[9]
  levels of MAPK phosphorylation in the tumors: significantly decreased
[10]
  overall animal weight: No significant effects

## C[N+]1(C)CCC(OC(=O)C(c2ccccc2)c2ccccc2)CC1.[I-] [4-DAMP, 4-diphenylacetoxy-N-methylpiperidine methiodide]
[2]; 10^−9 mol/L to 10^−5 mol/L, after nine days
  H82 cell proliferation: significantly reduced cell proliferation
